Test results published in US8575091B1, “Amylin analogues and pharmaceutical compositions thereof” (Novo Nordisk A/S, priority 2012, dated 2013).
Numbered stars: 1 amine (or outer) side, 2 acyl side, 3 side chain; on linkers, the order of the positions; unused ones are H or OH. Bridge positions count the residues as written; N and C are the ends. Side chains are listed from the residue outwards. Peptide text beside a SMILES is read from it. * marks the point of attachment. C20 diacid = O=C(O)CCCCCCCCCCCCCCCCCCC(=O)*; γGlu = O=C(O)[C@H](CCC(=O)[*:2])N[*:1]

Columns and labels:
[1] = target: T1, human amylin receptor (amylin 3(a) receptor: human calcitonin receptor + RAMP-3) (Homo sapiens, UniProt O60896+P30988); assay: Assay (II)a functional assay, human amylin receptor (CRE luciferase, BHK cells); format: cell-based; conditions: for EC50: functional assay, human amylin receptor, read-out: hAmylin-R funct. EC50
T1 construct: expressed in transfected cells
T1 sequence (P30988 25-474): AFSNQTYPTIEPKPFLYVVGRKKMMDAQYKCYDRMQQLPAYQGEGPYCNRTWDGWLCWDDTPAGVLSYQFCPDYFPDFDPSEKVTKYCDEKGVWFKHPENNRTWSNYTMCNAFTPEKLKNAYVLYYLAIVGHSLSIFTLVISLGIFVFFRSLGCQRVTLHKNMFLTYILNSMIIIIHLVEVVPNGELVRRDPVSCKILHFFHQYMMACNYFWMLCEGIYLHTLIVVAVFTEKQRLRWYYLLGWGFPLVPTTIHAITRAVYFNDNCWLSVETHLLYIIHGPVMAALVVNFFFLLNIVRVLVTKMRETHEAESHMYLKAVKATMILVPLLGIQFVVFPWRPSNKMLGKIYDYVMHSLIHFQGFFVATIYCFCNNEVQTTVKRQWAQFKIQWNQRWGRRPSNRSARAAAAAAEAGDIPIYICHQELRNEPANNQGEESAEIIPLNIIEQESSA
T1 sequence (O60896 24-148 partner): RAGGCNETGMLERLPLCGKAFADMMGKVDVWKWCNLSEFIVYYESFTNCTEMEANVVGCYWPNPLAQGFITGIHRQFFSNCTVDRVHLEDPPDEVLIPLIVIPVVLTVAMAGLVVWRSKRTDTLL

[2] = target: T2, human calcitonin receptor (Homo sapiens, UniProt P30988); assay: Assay (II)a functional assay, human calcitonin receptor (CRE luciferase, BHK cells);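 further: luminescence from a CRE-driven luciferase reporter, read by single photon counting after cells were exposed to test samples for 3 h at 37 °C under 5% CO2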; format: cell-based; conditions: read-out: hCTR funct. EC50
T2 construct: expressed in transfected cells
T2 sequence (P30988 25-474): T1 sequence (P30988 25-474)

[3] = target: T3, human amylin receptor (Homo sapiens, UniProt O60896+P30988); assay: Assay (V) binding to the human amylin receptor (SPA, 125I-rat amylin); conditions: human amylin receptor membranes, SPA; read-out: hAmylin-R bind IC50
T3 construct: expressed in transfected cells
T3 sequence (P30988 25-474): T1 sequence (P30988 25-474)
T3 sequence (O60896 24-148 partner): T1 sequence (O60896 24-148 partner)
Procedure, shortened: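 SPA competition binding on membranes from Amylin 3(a)/CRE-luc cells, 35 ng/μL membranes with 0.05 mg/well beads. Buffer 50 mM Hepes pH 7.4, 1 mM CaCl2, 5 mM MgCl2, 0.1% OA, 0.02% Tween20. IC50 from one-site competition fit as affinity measure.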

[4] = target: T2, human calcitonin receptor; assay: Assay (VII) binding to the human calcitonin receptor (SPA, 125I-Calcitonin); conditions: read-out: hCTR bind IC50;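 further: cell membranes coupled to SPA beads, competitive displacement read by scintillation counting, IC50 derived from a one-site competition fit as a measure of receptor affinity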
[5] = system: Wistar rats; assay: Assay (XII) single subcutaneous administration, plasma calcium in rats; format: in vivo, rat; conditions: 30 nmol/kg; for Plasma calcium red (%) 0-12 h: single s.c., maximal reduction 0-12 h, compared to vehicle
Description: Assay (XII)—Effect from Single Subcutaneous Administration of Analogue on Plasma Calcium in Rats
Male Wistar rats (Taconic Europe, ˜250 g at test date) were acclimatized to handling prior to the study. Rats were divided in groups of five and subcutaneously dosed with test compound at time=0. At time T=−15 min; 1 h, 2 h, 4 h, 7 h, 12 h, and 24 h a blood sample was obtained and heparin stabilized plasma was analysed for total calcium (Cobas, Hitachi). Data are illustrated in graphs as mean±SEM.

Row | EC50 [1] [nM] | EC50 [2] [nM] | IC50 [3] [nM] | IC50 [4] [nM] | Ratio hCT/hAmylin funct. ([1]; Table 6, human functional selectivity (hCTR EC50 / hAmylin-R EC50)) | Ratio hCT/hAmylin funct. ([1]; Table 6a, human functional selectivity (hCTR EC50 / hAmylin-R EC50), at least 5) | Ratio hCT/hAmylin funct. ([1]; Table 6i, hCTR funct. EC50 / hAmylin-R funct. EC50) | Ratio hCT/hAmylin funct. ([1]; Table 6j, hCTR funct. EC50 / hAmylin-R funct. EC50) | Ratio hCT/hAmylin funct. ([1]; Table 6k, hCTR funct. EC50 / hAmylin-R funct. EC50) | Structure (SMILES) | Plasma calcium red (%) 0-12 h [5] [%] | suppression of plasma calcium level relative to vehicle ([5]; single subcutaneous, over 24 hours)
1 | 0.101 | 1.45 | 0.179 | 3.8 |  |  |  |  |  | CC[C@H](C)[C@H](NC(=O)[C@H](C)NC(=O)CNC(=O)[C@H](Cc1ccccc1)NC(=O)[C@H](CC(N)=O)NC(=O)[C@@H]1CCCN1C(=O)[C@H](CO)NC(=O)[C@H](CO)NC(=O)[C@H](Cc1c[nH]cn1)NC(=O)[C@H](CCCNC(=N)N)NC(=O)[C@H](CC(C)C)NC(=O)[C@H](Cc1ccccc1)NC(=O)[C@H](CCC(=O)O)NC(=O)[C@H](C)NC(=O)[C@H](CC(C)C)NC(=O)[C@H](CCCNC(=N)N)NC(=O)[C@H](CCC(N)=O)NC(=O)[C@@H](NC(=O)[C@H](C)NC(=O)[C@@H]1CSSC[C@H](NC(=O)[C@@H](N)CCCCNC(=O)CC[C@H](NC(=O)CCCCCCCCCCCCCCCCCCC(=O)O)C(=O)O)C(=O)N[C@@H](CC(N)=O)C(=O)N[C@@H]([C@@H](C)O)C(=O)N[C@@H](C)C(=O)N[C@@H]([C@@H](C)O)C(=O)N1)[C@@H](C)O)C(=O)N1CCC[C@H]1C(=O)N[C@@H](CO)C(=O)N[C@@H](CO)C(=O)N[C@H](C(=O)N[C@@H](CC(N)=O)C(=O)N[C@H](C(=O)NCC(=O)N1CCC[C@H]1C(=O)N[C@@H](Cc1c[nH]cn1)C(=O)N[C@H](C(=O)N[C@@H](Cc1ccc(O)cc1)C(N)=O)[C@@H](C)O)C(C)C)[C@@H](C)O [Example 118] (H-K([γGlu-C20 diacid])CNTATCATQRLAEFLRHSSPNFGAIPSSTNVGPHTY-NH2; disulfide 2-7) | 26 | 
2 | 0.372 | 5.22 | 0.828 | 31.1 | 14.0 | 14.0 | 14.0 | 14.0 | 14.0 | CC[C@H](C)[C@H](NC(=O)[C@H](C)NC(=O)CNC(=O)[C@H](Cc1ccccc1)NC(=O)[C@H](CC(N)=O)NC(=O)[C@@H]1CCCN1C(=O)[C@H](CO)NC(=O)[C@H](CO)NC(=O)[C@H](Cc1c[nH]cn1)NC(=O)[C@H](CCCNC(=N)N)NC(=O)[C@H](CC(C)C)NC(=O)[C@H](Cc1ccccc1)NC(=O)[C@H](CCC(=O)O)NC(=O)[C@H](C)NC(=O)[C@H](CC(C)C)NC(=O)[C@H](CCCNC(=N)N)NC(=O)[C@H](CCC(N)=O)NC(=O)[C@@H](NC(=O)[C@H](C)NC(=O)[C@@H]1CSSC[C@H](NC(=O)[C@@H](N)CCCCNC(=O)CC[C@H](NC(=O)CCCCCCCCCCCCCCCCCCC(=O)O)C(=O)O)C(=O)N[C@@H](CC(N)=O)C(=O)N[C@@H]([C@@H](C)O)C(=O)N[C@@H](C)C(=O)N[C@@H]([C@@H](C)O)C(=O)N1)[C@@H](C)O)C(=O)N1CCC[C@H]1C(=O)N[C@@H](CO)C(=O)N[C@@H](CO)C(=O)N[C@H](C(=O)N[C@@H](CC(N)=O)C(=O)N[C@H](C(=O)NCC(=O)N[C@@H](CO)C(=O)N[C@@H](CCCNC(=N)N)C(=O)N[C@H](C(=O)N[C@@H](Cc1ccc(O)cc1)C(N)=O)[C@@H](C)O)C(C)C)[C@@H](C)O [Example 51] (H-K([γGlu-C20 diacid])CNTATCATQRLAEFLRHSSPNFGAIPSSTNVGSRTY-NH2; disulfide 2-7) | 10 | None of the example compounds at 30 nmol/kg trigger a notable suppression of the calcium level
